According to ChEMBL document CHEMBL4842340, “Development of Cagrilintide, a Long-Acting Amylin Analogue” (J Med Chem, 2021):
Converted amounts (≈) assume the structure as drawn. *1 amine or outer side, *2 acyl side, *3 side chain or, on linkers, in order; H or OH if unused. Where a SMILES comes first, the peptide text is derived from it. Bridges are numbered along the chain shown (N, C = ends). The star is where a group is joined. C20 diacid = O=C(O)CCCCCCCCCCCCCCCCCCC(=O)*; γGlu = O=C(O)[C@H](CCC(=O)[*:2])N[*:1]

Assays:
[1] = Agonist activity at human calcitonin receptor expressed in BHK570 cells assessed as increase in intracellular cAMP concentration incubated for 3 hrs in absence of albumin by CRE luciferase reporter gene assay; assay type: cell-based; details: BHK570, 3 h
[2] = Half life in Sprague-Dawley rat at 10 nmol/kg, sc measured up to 96 hrs by LC-MS analysis; assay type: ADME, organism-based; details: in vivo
Insulin (Homo sapiens) [3] = biological target: Insulin (Homo sapiens) (UniProt P01308); assay: Effect on insulin (unknown origin) amyloid fibril formation assessed as peptide recovery in glycyl-glycine buffer at pH 4 measured after 45 hrs by thioflavin-T fluorescence assay relative to control; set-up: concentration or dose not given beside the values
Insulin (Homo sapiens) [4] = biological target: Insulin (Homo sapiens) (UniProt P01308); assay: Effect on insulin (unknown origin) amyloid fibril formation assessed as peptide recovery in HEPES buffer at pH 7.5 measured after 45 hrs by thioflavin-T fluorescence assay relative to control
[5] = Clearance in Sprague-Dawley rat at 10 nmol/kg, iv measured up to 96 hrs by LC-MS analysis; assay type: ADME, organism-based; details: in vivo
Rattus norvegicus [6] = assay: Reduction in food intake in Sprague-Dawley rat at 30 nmol/kg, sc administered as single dose measured after 24 to 48 hrs relative to control; assay type: functional; set-up: scale not given: the % may be the effect or the level left; details: time 24-48 hrs
[7] = Displacement of [125I]-calcitonin from rat calcitonin receptor expressed in tk-ts 13 cells measured after 120 mins by scintillation proximity assay; assay type: cell-based; details: tk-ts13
[8] = Solubility of the compound in lactate at pH 4 by UPLC analysis; assay type: physicochemical; details: lactate buffer
[9] = Displacement of [125I]-amylin from human AMY3R (CTR+RAMP3) expressed in BHK-13 cells measured after 120 mins by scintillation proximity assay; assay type: cell-based
Rattus norvegicus [10] = assay: Reduction in food intake in Sprague-Dawley rat at 30 nmol/kg, sc administered as single dose measured upto 24 hrs relative to control; assay type: functional; set-up: scale not given: the % may be the effect or the level left; details: time hrs <=24
[11] = Solubility of the compound in bis-tris propane at pH 6 by UPLC analysis; assay type: physicochemical; details: bis-tris propane buffer
[12] = Displacement of [125I]-calcitonin from human calcitonin receptor expressed in tk-ts 13 cells measured after 120 mins by scintillation proximity assay; assay type: cell-based; details: tk-ts13
[13] = Apparent volume of distribution in Sprague-Dawley rat at 10 nmol/kg, iv measured up to 96 hrs by LC-MS analysis; assay type: ADME, organism-based; details: in vivo, read-out: Vz
[14] = Solubility of the compound in bis-tris propane at pH 8 by UPLC analysis; assay type: physicochemical; details: bis-tris propane buffer
Homo sapiens [15] = species: Homo sapiens; assay: Ratio of EC50 for human calcitonin receptor expressed in BHK570 cells to EC50 for human AMY3R (CT+RAMP3) expressed in Hollex1 cells; assay type: cell-based
Rattus norvegicus [16] = species: Rattus norvegicus; assay: Ratio of EC50 for rat calcitonin receptor expressed in BHK-13 cells to EC50 for rat AMY3R (CT+RAMP3) expressed in tk-ts13 cells; assay type: cell-based
Rattus norvegicus [17] = assay: Reduction in food intake in Sprague-Dawley rat at 3 nmol/kg, sc administered as single dose measured after 24 to 48 hrs relative to control; assay type: functional; set-up: scale not given: the % may be the effect or the level left; details: time 24-48 hrs
[18] = Solubility of the compound in lactate at pH 5 by UPLC analysis; assay type: physicochemical; details: lactate buffer
[19] = Half life in Sprague-Dawley rat at 10 nmol/kg, iv measured up to 96 hrs by LC-MS analysis; assay type: ADME, organism-based; details: in vivo
[20] = Solubility of the compound in bis-tris propane at pH 6.5 by UPLC analysis; assay type: physicochemical; details: bis-tris propane buffer
[21] = Agonist activity at rat calcitonin receptor expressed in BHK-13 cells assessed as increase in intracellular cAMP concentration incubated for 25 mins by CRE luciferase reporter gene assay; assay type: cell-based; details: BHK-13, 25 min
[22] = Displacement of [125I]-amylin from rat AMY3R (CTR+RAMP3) expressed in BHK-13 cells measured after 120 mins by scintillation proximity assay; assay type: cell-based
[23] = Bioavailability in Sprague-Dawley rat at 10 nmol/kg, sc measured up to 96 hrs by LC-MS analysis; assay type: ADME, organism-based; details: in vivo
Insulin (Homo sapiens) [24] = biological target: Insulin (Homo sapiens) (UniProt P01308); assay: Effect on insulin (unknown origin) amyloid fibril formation assessed as lag time in HEPES buffer at pH 7.5 measured after 45 hrs by thioflavin-T fluorescence assay
Insulin (Homo sapiens) [25] = biological target: Insulin (Homo sapiens) (UniProt P01308); assay: Effect on insulin (unknown origin) amyloid fibril formation assessed as lag time in glycyl-glycine buffer at pH 4 measured after 45 hrs by thioflavin-T fluorescence assay
[26] = Agonist activity at human AMY3R (CT+RAMP3) expressed in Hollex1 cells incubated for 3 hrs by luminescence assay; assay type: cell-based; details: Hollex1, 3 h
[27] = Agonist activity at rat AMY3R (CT+RAMP3) expressed in tk-ts13 cells assessed as increase in intracellular cAMP level incuabted for 25 mins by CRE luciferase reporter gene assay; assay type: cell-based; details: tk-ts13, 25 min
Rattus norvegicus [28] = assay: Reduction in food intake in Sprague-Dawley rat at 3 nmol/kg, sc administered as single dose measured upto 24 hrs relative to control; assay type: functional; set-up: scale not given: the % may be the effect or the level left; details: time hrs <=24
Homo sapiens [29] = species: Homo sapiens; assay: Ratio of IC50 for displacement of [125I]-calcitonin from human calcitonin receptor expressed in tk-ts 13 cells to IC50 for displacement of [125I]-amylin from human AMY3R (CTR+RAMP3) expressed in BHK-13 cells; assay type: cell-based
Rattus norvegicus [30] = species: Rattus norvegicus; assay: Ratio of IC50 for displacement of [125I]-calcitonin from rat calcitonin receptor expressed in tk-ts 13 cells to IC50 for displacement of [125I]-amylin from rat AMY3R (CTR+RAMP3) expressed in BHK-13 cells; assay type: cell-based
[31] = Solubility of the compound in bis-tris propane at pH 7 by UPLC analysis; assay type: physicochemical; details: bis-tris propane buffer
[32] = Solubility of the compound in lactate at pH 3 by UPLC analysis; assay type: physicochemical; details: lactate buffer
[33] = Dose normalized AUC in Sprague-Dawley rat at 10 nmol/kg, sc measured up to 96 hrs by LC-MS analysis; assay type: ADME, organism-based; details: in vivo
[34] = Dose normalized AUC in Sprague-Dawley rat at 10 nmol/kg, iv measured up to 96 hrs by LC-MS analysis; assay type: ADME, organism-based; details: in vivo
[35] = Solubility of the compound in bis-tris propane at pH 7.5 by UPLC analysis; assay type: physicochemical; details: bis-tris propane buffer

Chain of Insulin (Homo sapiens) (P01308 whole entry): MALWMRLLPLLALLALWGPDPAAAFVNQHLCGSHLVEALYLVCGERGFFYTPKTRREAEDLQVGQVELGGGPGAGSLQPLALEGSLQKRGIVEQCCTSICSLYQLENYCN

| SMILES | EC50 [1] [nM] | Activity (Insulin (Homo sapiens) [3]) [%] | Activity (Insulin (Homo sapiens) [4]) [%] | Activity (Rattus norvegicus [6]) [%] | IC50 [7] [nM] | solubility [8] [µM] | IC50 [9] [nM] | Activity (Rattus norvegicus [10]) [%] | solubility [11] [µM] | IC50 [12] [nM] | Ratio EC50 (Homo sapiens [15]) | Ratio EC50 (Rattus norvegicus [16]) | Activity (Rattus norvegicus [17]) [%] | solubility [18] [µM] | EC50 [21] [nM] | IC50 [22] [nM] | TIME (Insulin (Homo sapiens) [24]) [h] | TIME (Insulin (Homo sapiens) [25]) [h] | EC50 [26] [nM] | EC50 [27] [nM] | also measured |
| --- | --- | --- | --- | --- | --- | --- | --- | --- | --- | --- | --- | --- | --- | --- | --- | --- | --- | --- | --- | --- | --- |
| CC[C@H](C)[C@H](NC(=O)[C@@H]1CCCN1C(=O)CNC(=O)[C@H](Cc1ccccc1)NC(=O)[C@H](CC(N)=O)NC(=O)[C@H](CC(N)=O)NC(=O)[C@H](CO)NC(=O)[C@H](CO)NC(=O)[C@H](Cc1c[nH]cn1)NC(=O)[C@H](CCCNC(=N)N)NC(=O)[C@H](CC(C)C)NC(=O)[C@H](Cc1ccccc1)NC(=O)[C@H](CCC(=O)O)NC(=O)[C@H](C)NC(=O)[C@H](CC(C)C)NC(=O)[C@H](CCCNC(=N)N)NC(=O)[C@H](CCC(N)=O)NC(=O)[C@@H](NC(=O)[C@H](C)NC(=O)[C@@H]1CSSC[C@H](NC(=O)[C@H](CCCCN)NC(=O)CC[C@H](NC(=O)CCCCCCCCCCCCCCCCCCC(=O)O)C(=O)O)C(=O)N[C@@H](CC(N)=O)C(=O)N[C@@H]([C@@H](C)O)C(=O)N[C@@H](C)C(=O)N[C@@H]([C@@H](C)O)C(=O)N1)[C@@H](C)O)C(=O)N[C@@H](CC(C)C)C(=O)N1CCC[C@H]1C(=O)N1CCC[C@H]1C(=O)N[C@H](C(=O)N[C@@H](CC(N)=O)C(=O)N[C@H](C(=O)NCC(=O)N[C@@H](CO)C(=O)N[C@@H](CC(N)=O)C(=O)N[C@H](C(=O)N1CCC[C@H]1C(N)=O)[C@@H](C)O)C(C)C)[C@@H](C)O | 0.062 | 96 | 76 | 84 | 0.681 | 200 (≈ 882 µg/mL) | 0.17 | 85 | 200 (≈ 882 µg/mL) | 0.223 | 1 | 1 | 29 | 200 (≈ 882 µg/mL) | 0.287 | 0.52 | 41 | 45 | 0.049 | 0.348 | half-life [2]: 27 h; clearance [5]: 3.77 mL/h/kg; Vd [13]: 0.109 L/kg; solubility [14]: 200 µM (≈ 882 µg/mL); half-life [19]: 20 h; solubility [20]: 200 µM (≈ 882 µg/mL); bioavailability [23]: 30%; Activity (Rattus norvegicus [28]): 40%; Ratio IC50 (Homo sapiens [29]): 1; Ratio IC50 (Rattus norvegicus [30]): 1; solubility [31]: 200 µM (≈ 882 µg/mL); solubility [32]: 200 µM (≈ 882 µg/mL); AUC/dose [33]: 87 kg·h/L; AUC/dose [34]: 266 kg·h/L; solubility [35]: 200 µM (≈ 882 µg/mL) |
| CC[C@H](C)[C@H](NC(=O)[C@@H]1CCCN1C(=O)CNC(=O)[C@H](Cc1ccccc1)NC(=O)[C@H](CC(N)=O)NC(=O)[C@H](CC(N)=O)NC(=O)[C@H](CO)NC(=O)[C@H](CO)NC(=O)[C@H](Cc1c[nH]cn1)NC(=O)[C@H](Cc1cnc[nH]1)NC(=O)[C@H](CC(C)C)NC(=O)[C@H](Cc1ccccc1)NC(=O)[C@H](CCC(=O)O)NC(=O)[C@H](C)NC(=O)[C@H](CC(C)C)NC(=O)[C@H](CCCNC(=N)N)NC(=O)[C@H](CCC(N)=O)NC(=O)[C@@H](NC(=O)[C@H](C)NC(=O)[C@@H]1CSSC[C@H](NC(=O)[C@H](CCCCN)NC(=O)CC[C@H](NC(=O)CCCCCCCCCCCCCCCCCCC(=O)O)C(=O)O)C(=O)N[C@@H](CC(N)=O)C(=O)N[C@@H]([C@@H](C)O)C(=O)N[C@@H](C)C(=O)N[C@@H]([C@@H](C)O)C(=O)N1)[C@@H](C)O)C(=O)N[C@@H](CC(C)C)C(=O)N1CCC[C@H]1C(=O)N1CCC[C@H]1C(=O)N[C@H](C(=O)N[C@@H](CC(N)=O)C(=O)N[C@H](C(=O)NCC(=O)N[C@@H](CO)C(=O)N[C@@H](Cc1cnc[nH]1)C(=O)N[C@H](C(=O)N[C@@H](Cc1ccc(O)cc1)C(N)=O)[C@@H](C)O)C(C)C)[C@@H](C)O ({C20 diacid-γGlu}-KCNTATCATQRLAEFLHHSSNNFGPILPPTNVGSHTY-NH2; disulfide 2-7) | 0.147 | 91 | 29 | 90 | 0.666 | 200 (≈ 896 µg/mL) | 1.07 | 88 | 200 (≈ 896 µg/mL) | 1.12 | 1 | 3 | 40 | 200 (≈ 896 µg/mL) | 0.673 | 0.194 | 1 | 37 | 0.145 | 0.246 | Activity (Rattus norvegicus [28]): 58%; Ratio IC50 (Homo sapiens [29]): 1; Ratio IC50 (Rattus norvegicus [30]): 3; solubility [31]: 103 µM (≈ 461 µg/mL); solubility [32]: 200 µM (≈ 896 µg/mL); solubility [35]: 109 µM (≈ 488 µg/mL) |
